In PubChem BioAssay AID248 (DTP/NCI, 2004):
“And” between values parts separate entries of the source, which are not always exact repeats. Identical values can stand only once. Toxic doses and inconclusive results are not listed. Rule as the data show it: active = T/C of 150% or more; inactive = T/C below 125%.

Test system: L1210 leukemia ip in BDF1 mice, survival T/C
Assay: NCI In Vivo Anticancer Drug Screen. Data for tumor model L1210 Leukemia (intraperitoneal) in B6D2F1 (BDF1) mice
Details: endpoint: mean survival time, higher = longer survival
How it was run: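 Mice bearing the transplanted tumor received compound or vehicle. Survival of the treated group was divided by that of the vehicle-treated control group to give the ratio.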

[1] = dose: 100.0 mg/kg/injection, schedule: Q01DX009 (ip), vehicle: saline with Tween-80
[2] = dose: 200.0 mg/kg/injection, schedule: Q01DX009 (ip), vehicle: saline with Tween-80
[3] = dose: 400.0 mg/kg/injection, schedule: Q01DX009 (ip), vehicle: saline with Tween-80
[4] = dose: 25.0 mg/kg/injection, schedule: Q01DX009 (ip), vehicle: Klucel (hydroxypropylcellulose) (HPC)
[5] = dose: 25.0 mg/kg/injection, schedule: Q04DX003 (ip), vehicle: Klucel (hydroxypropylcellulose) (HPC)
[6] = dose: 50.0 mg/kg/injection, schedule: Q04DX003 (ip), vehicle: Klucel (hydroxypropylcellulose) (HPC)
[7] = dose: 50.0 mg/kg/injection, schedule: Q04DX002 (ip), vehicle: saline
[8] = dose: 100.0 mg/kg/injection, schedule: Q04DX002 (ip), vehicle: saline
[9] = dose: 200.0 mg/kg/injection, schedule: Q04DX002 (ip), vehicle: saline
[10] = dose: 400.0 mg/kg/injection, schedule: Q04DX002 (ip), vehicle: saline
[11] = dose: 100.0 mg/kg/injection, schedule: Q01DX001 (ip), vehicle: other
[12] = dose: 200.0 mg/kg/injection, schedule: Q01DX001 (ip), vehicle: other
[13] = dose: 100.0 mg/kg/injection, schedule: Q01DX001 (ip), vehicle: carboxymethylcellulose (CMC)
[14] = dose: 200.0 mg/kg/injection, schedule: Q01DX001 (ip), vehicle: carboxymethylcellulose (CMC)
[15] = dose: 400.0 mg/kg/injection, schedule: Q01DX001 (ip), vehicle: carboxymethylcellulose (CMC)
[16] = dose: 50.0 mg/kg/injection, schedule: Q01DX009 (ip), vehicle: saline with Tween-80
[17] = dose: 100.0 mg/kg/injection, schedule: Q01DX009 (ip), vehicle: Klucel (hydroxypropylcellulose) (HPC)
[18] = dose: 100.0 mg/kg/injection, schedule: Q04DX003 (ip), vehicle: Klucel (hydroxypropylcellulose) (HPC)
[19] = dose: 100.0 mg/kg/injection, schedule: Q04DX003 (ip), vehicle: saline with Tween-80
[20] = dose: 200.0 mg/kg/injection, schedule: Q01DX009 (ip), vehicle: Klucel (hydroxypropylcellulose) (HPC)
[21] = dose: 200.0 mg/kg/injection, schedule: Q04DX003 (ip), vehicle: Klucel (hydroxypropylcellulose) (HPC)
[22] = dose: 400.0 mg/kg/injection, schedule: Q01DX009 (ip), vehicle: Klucel (hydroxypropylcellulose) (HPC)
[23] = dose: 400.0 mg/kg/injection, schedule: Q04DX003 (ip), vehicle: Klucel (hydroxypropylcellulose) (HPC)
[24] = dose: 50.0 mg/kg/injection, schedule: Q01DX009 (ip), vehicle: Klucel (hydroxypropylcellulose) (HPC)
[25] = dose: 200.0 mg/kg/injection, schedule: Q04DX003 (ip), vehicle: saline with Tween-80
[26] = dose: 400.0 mg/kg/injection, schedule: Q04DX003 (ip), vehicle: saline with Tween-80

Measured: T/C

CC(C)c1ccc2cc(C(C)C)ccc2c1
inactive: [1] 107 % of control | [2] 92 % of control | [3] 92 % of control

FC(F)(F)C(=Cc1nc2ccccc2s1)C(F)(F)F
inactive: dose: 12.5 mg/kg/injection, schedule: Q01DX009 (ip), vehicle: Klucel (hydroxypropylcellulose) (HPC) 91 % of control | dose: 12.5 mg/kg/injection, schedule: Q04DX003 (ip), vehicle: Klucel (hydroxypropylcellulose) (HPC) 93 % of control | [4] 98 % of control | [5] 97 % of control | [6] 95 % of control

O=C(O)C1C(C(=O)O)C23CC2(C(=O)O)C2(C(=O)O)CCC3=C3CCCC312 (stereo unspecified)
inactive: dose: 6.25 mg/kg/injection, schedule: Q01DX009 (ip), vehicle: saline 109 % of control | dose: 6.25 mg/kg/injection, schedule: Q04DX003 (ip), vehicle: saline 104 % of control | dose: 12.5 mg/kg/injection, schedule: Q01DX001 (ip), vehicle: saline 114 % of control | dose: 12.5 mg/kg/injection, schedule: Q01DX009 (ip), vehicle: saline 111 % of control | dose: 12.5 mg/kg/injection, schedule: Q04DX003 (ip), vehicle: saline 104 % of control | dose: 25.0 mg/kg/injection, schedule: Q01DX001 (ip), vehicle: saline 98 % of control | dose: 25.0 mg/kg/injection, schedule: Q04DX003 (ip), vehicle: saline 103 % of control

c1ccc(CCSCCCSCCc2ccccn2)nc1
inactive: [7] 98 % of control | [8] 98 % of control | [9] 92 % of control | [10] 95 % of control

CCC([NH-])=O.CCC([NH-])=O.[Pt+2]
inactive: dose: 100.0 mg/kg/injection, schedule: Q01DX009 (ip), vehicle: water 107 % of control | dose: 100.0 mg/kg/injection, schedule: Q04DX003 (ip), vehicle: water 101 % of control | dose: 200.0 mg/kg/injection, schedule: Q01DX009 (ip), vehicle: water 106 % of control | dose: 200.0 mg/kg/injection, schedule: Q04DX003 (ip), vehicle: water 108 % of control | dose: 400.0 mg/kg/injection, schedule: Q04DX003 (ip), vehicle: water 110 % of control

ClCCN(CCCl)c1ccc(Nc2nc(Nc3ccc(N(CCCl)CCCl)cc3)c3ccccc3n2)cc1
inactive: dose: 25.0 mg/kg/injection, schedule: Q04DX002 (ip), vehicle: saline 105 % of control | [7] 113 % of control | [8] 111 % of control | [9] 106 % of control and 109 % of control | [10] 95 % of control

CC(=O)[O][Hg][CH]1Cc2ccccc2O1 (stereo unspecified)
inactive: dose: 15.0 mg/kg/injection, schedule: Q01DX001 (ip), vehicle: carboxymethylcellulose (CMC) 94 % of control

COC(=O)C1(C)CCCC2(C)c3cc(OC)c4c(c3CCC12)C(=O)CCC4 (stereo unspecified)
inactive: dose: 100.0 mg/kg/injection, schedule: Q01DX001 (sc), vehicle: steriod suspending solution 93 % of control | dose: 200.0 mg/kg/injection, schedule: Q01DX001 (sc), vehicle: steriod suspending solution 90 % of control | dose: 400.0 mg/kg/injection, schedule: Q01DX001 (sc), vehicle: steriod suspending solution 98 % of control

CCCCCCCCCCCCCCCNC1=C(OC)C(=O)C(NCCCCCCCCCCCCCCC)=C(OC)C1=O
inactive: [11] 90 % of control | [12] 93 % of control | dose: 400.0 mg/kg/injection, schedule: Q01DX001 (ip), vehicle: other 96 % of control

O=C(O)Cc1cccc(=O)n1Cc1ccccc1
inactive: dose: 75.0 mg/kg/injection, schedule: Q04DX003 (ip), vehicle: Klucel (hydroxypropylcellulose) (HPC) 98 % of control | dose: 150.0 mg/kg/injection, schedule: Q04DX003 (ip), vehicle: Klucel (hydroxypropylcellulose) (HPC) 100 % of control | dose: 300.0 mg/kg/injection, schedule: Q04DX003 (ip), vehicle: Klucel (hydroxypropylcellulose) (HPC) 102 % of control

CC(C)CC(CC(C)C)=NO
inactive: [13] 104 % of control | [14] 101 % of control | [15] 103 % of control

O=c1[nH]c2ncccc2c(=O)n1OS(=O)(=O)c1ccccc1
inactive: dose: 50.0 mg/kg/injection, schedule: Q01DX001 (ip), vehicle: saline 102 % of control | dose: 50.0 mg/kg/injection, schedule: Q01DX009 (ip), vehicle: saline 98 % of control | dose: 100.0 mg/kg/injection, schedule: Q01DX001 (ip), vehicle: saline 96 % of control | dose: 100.0 mg/kg/injection, schedule: Q01DX009 (ip), vehicle: saline 106 % of control | dose: 200.0 mg/kg/injection, schedule: Q01DX001 (ip), vehicle: saline 93 % of control | dose: 200.0 mg/kg/injection, schedule: Q01DX009 (ip), vehicle: saline 98 % of control | dose: 400.0 mg/kg/injection, schedule: Q01DX001 (ip), vehicle: saline 96 % of control

O=C1CCCN1C1CC2c3ccccc3C1c1cccc[n+]12 (stereo unspecified)
inactive: dose: 5.0 mg/kg/injection, schedule: Q01DX009 (ip), vehicle: saline sonified 94 % of control | dose: 10.0 mg/kg/injection, schedule: Q01DX009 (ip), vehicle: saline sonified 98 % of control | dose: 20.0 mg/kg/injection, schedule: Q01DX009 (ip), vehicle: saline sonified 97 % of control

O=S(=O)(O)c1ccc(N=Nc2ccc(O)cc2)cc1
inactive: dose: 25.0 mg/kg/injection, schedule: Q01DX009 (ip), vehicle: saline with Tween-80 104 % of control | [16] 102 % of control | [17] 88 % of control | [1] 101 % of control | [18] 92 % of control and 98 % of control | [19] 107 % of control | [20] 88 % of control | [21] 92 % of control and 102 % of control | [22] 90 % of control | [23] 97 % of control

c1ccc(OCc2ccc(COc3ccccc3)cc2)cc1
inactive: [4] 98 % of control | [5] 97 % of control | [24] 92 % of control | [6] 94 % of control | [17] 95 % of control | [18] 92 % of control

NC(=O)NC(=O)/C=C\C(=O)O
inactive: [24] 93 % of control | [17] 98 % of control | [20] 91 % of control

OC1CC2CCC1C2 (stereo unspecified)
inactive: [1] 94 % of control | [19] 106 % of control | [2] 105 % of control | [25] 91 % of control | [3] 95 % of control | [26] 88 % of control

CSc1ccc(NC(=O)Oc2ccc(NC(C)=O)cc2)cc1
inactive: [17] 98 % of control | [20] 106 % of control | [22] 98 % of control

N#CCCNC(=O)Nc1cccc2ccccc12
inactive: [13] 96 % of control | [14] 100 % of control | [15] 96 % of control

[N-]=[N+]=CS(=O)(=O)c1ccccc1-c1ccccc1
inactive: [18] 104 % of control | [21] 103 % of control | [23] 95 % of control

c1ccc(N2CN(c3ccccc3)N(c3ccccc3)CN2c2ccccc2)cc1
inactive: [11] 92 % of control | [12] 89 % of control

O=C(Nc1ccc(Cl)cc1C(F)(F)F)Oc1ccc(Cl)cc1Br
inactive: [16] 98 % of control | [1] 103 % of control | [2] 103 % of control

CCOc1cccc(Cc2cn(Cc3cccc(NC(=O)c4ccccc4)c3)c(=O)[nH]c2=O)c1
inactive: dose: 100.0 mg/kg/injection, schedule: Q01DX001 (ip), vehicle: saline with Tween-80 93 % of control | dose: 200.0 mg/kg/injection, schedule: Q01DX001 (ip), vehicle: saline with Tween-80 96 % of control | dose: 400.0 mg/kg/injection, schedule: Q01DX001 (ip), vehicle: saline with Tween-80 95 % of control

CCOC(=O)C(Nc1ccccc1)C(=O)OCC
inactive: [19] 92 % of control | [25] 97 % of control | [26] 100 % of control

c1ccc2nc(OCCN3CC3)ccc2c1
inactive: [13] 108 % of control

CC12CCC(=O)N1C(C(=O)O)CS2 (stereo unspecified)
inactive: [8] 91 % of control | [9] 102 % of control | [10] 98 % of control
